Source: patent EP4810040A2, “INHIBITORS OF APOL1 AND METHODS OF USING SAME” (priority 2020, dated 2022)
Read-outs that look alike come from different tables or passages of the source.

Molecular target: T1, APOL1 G1 (Homo sapiens, UniProt O14791, I384M/S342G)
T1 sequence (O14791 28-398 S342G/I384M): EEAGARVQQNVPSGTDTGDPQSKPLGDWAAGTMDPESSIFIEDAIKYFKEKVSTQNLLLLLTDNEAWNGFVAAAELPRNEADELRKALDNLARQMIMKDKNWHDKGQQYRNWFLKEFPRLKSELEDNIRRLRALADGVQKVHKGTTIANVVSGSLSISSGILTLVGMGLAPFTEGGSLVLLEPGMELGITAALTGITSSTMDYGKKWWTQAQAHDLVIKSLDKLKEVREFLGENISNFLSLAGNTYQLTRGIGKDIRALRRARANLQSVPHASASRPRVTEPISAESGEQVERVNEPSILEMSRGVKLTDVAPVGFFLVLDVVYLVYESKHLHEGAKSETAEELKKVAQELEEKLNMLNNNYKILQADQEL
Test: MultiTox-Fluor Multiplex Cytotoxicity Assay, tet-inducible APOL1 G1 T-REx-HEK293 cells
Format: cell-based
Set-up: expressed in transfected cells; host or cells: T-REx HEK293, clone G1 DC3.25 (pAAVS1-Puro-APOL1 G1)
Details: for IC90: read-out: Multi-Tox Assay IC90; for Emax: read-out: Multi-Tox Assay Max Activity (%)
In short: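 T-REx-HEK293 cells carrying tet-inducible APOL1 G1 induced with 50 ng/mL tet alongside compound (top 10 µM, 10-point 3-fold, duplicate) for 24 h at 37 °C. MultiTox-Fluor dead/live protease fluorescence ratio read after 30 min; normalized to no-tet (100% viability) and tet-treated (0%) controls, then curve-fitted.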

[1] = HEK293, Multi-Tox Assay, APOL1 variant (G0/G1/G2) of the HEK293 cells not given
[2] = Multi-Tox Assay, APOL1 variant not given

Row | SMILES | IC90 [1] [nM] | Emax [2] [%] | Multi-Tox Assay Max Activity (%) [2] [%] | IC90 (Multi-Tox Assay, APOL1 variant (G0/G1/G2) not stated in Table 46) [nM] | Multi-Tox Assay Max Activity (%) (Multi-Tox Assay, APOL1 variant not stated in Table 46)
1 | C[C@H]1C[C@@]2(C[C@@H](c3cn4c(n3)COCC4)N1)OCCc1cc(Cl)sc12 (racemic) [Compound 74] | < 50 | 99.2 |  |  | 
2 | CC1CC2(CC(c3cccnc3)N1)OCCc1cc(Cl)sc12 (racemic) [Compound 20, 2-chloro-2'-methyl-6'-(3-pyridyl)spiro[4,5-dihydrothieno[2,3-c]pyran-7, 4'-piperidine]] | < 50 | 99.4 |  |  | 
3 | C[C@H]1C[C@@]2(C[C@@H](c3ncccc3O)N1)OCCc1cc(Cl)sc12 (racemic) [Compound 172] | > 500 |  | 52.0 |  | 
4 | Cc1cc([C@@H]2C[C@]3(C[C@H](C)N2)OCCc2cc(Cl)sc23)ccn1 (racemic) [Compound 21, (2S)-2-chloro-2'-methyl-6'-(2-methyl-4-pyridyl)spiro[4,5-dihydrothieno[2,3-c]pyran-7,4'-piperidine]] | < 50 | 99.7 |  |  | 
5 | C[C@H]1C[C@@]2(C[C@@H](c3cn(CC(O)c4ccccc4)nn3)N1)OCC(F)(F)c1cc(Cl)sc12 (stereo partly shown) [Compound 322] | 50 to 500 |  | 97.0 |  | 
6 | C[C@H]1C[C@@]2(C[C@@H](c3cn(Cc4cccc5c4OCCO5)nn3)N1)OCC(F)(F)c1cc(Cl)sc12 [Compound 310] | > 500 |  | 94.0 |  | 
7 | C[C@H]1C[C@@]2(C[C@@H](c3cnn(CC(C)(CO)CO)c3)N1)OCCc1cc(Cl)sc12 (racemic) [Compound 103] | < 50 |  | 99.6 |  | 
8 | C[C@H]1C[C@@]2(C[C@@H](c3cccc(-c4cn[nH]c4)c3)N1)OCCc1cc(Cl)sc12 (racemic) [Compound 148] | 50 to 500 |  | 97.0 |  | 
9 | C[C@H]1C[C@@]2(C[C@@H](c3ccc4cn[nH]c4c3)N1)OCCc1cc(Cl)sc12 (racemic) [Compound 67] | < 50 | 99.7 |  |  | 
10 | COC(=O)C1([C@@H]2C[C@]3(C[C@H](C)N2)OCCc2cc(Cl)sc23)CC1 [Compound 372, methyl 1-[(2'S,6'S,7S)-2-chloro-6'-methyl-spiro[4,5-dihydrothieno[2,3-c]pyran-7,4'-piperidine]-2'-yl]cyclopropanecarboxylate] |  |  |  | > 500 | 92.0
11 | C[C@H]1C[C@@]2(C[C@@H](c3cn(Cc4cccnn4)nn3)N1)OC[C@@H](O)c1cc(Cl)sc12 [Compound 280] | 50 to 500 |  |  |  | 
12 | C[C@H]1C[C@@]2(C[C@@H](c3cnc(C4CC4)nc3)N1)OCCc1cc(Cl)sc12 (racemic) [Compound 52] | < 50 |  | 99.7 |  | 
13 | CCOCCn1cc([C@@H]2C[C@]3(C[C@H](C)N2)OC[C@@H](O)c2cc(Cl)sc23)nn1 [Compound 257] | 50 to 500 |  | 101.0 |  | 
14 | CCc1c[nH]c([C@@H]2C[C@]3(C[C@H](C)N2)OCCc2cc(Cl)sc23)n1 (racemic) [Compound 153] | > 500 |  | 96.0 |  | 
15 | C[C@H]1C[C@@]2(C[C@@H](c3cn(CCCS(C)(=O)=O)nn3)N1)OC[C@@H](O)c1cc(Cl)sc12 [Compound 228] | 50 to 500 |  | 100.0 |  | 
16 | C#C[C@@H]1C[C@]2(C[C@H](C)N1)OCCc1cc(Cl)sc12 [Compound 221, (2S,4S,6S)-2'-chloro-2-ethynyl-6-methyl-4',5'-dihydrospiro[piperidine-4,7'-thieno[2,3-c]pyran]] | 50 to 500 | 99 |  |  | 
17 | Cc1nnc(Cn2cc([C@@H]3C[C@]4(C[C@H](C)N3)OC[C@@H](O)c3cc(Cl)sc34)nn2)[nH]1 [Compound 272] | > 500 |  | 95.0 |  | 
18 | C[C@H]1C[C@@]2(C[C@@H](c3cn(Cc4n[nH]c5ccccc45)nn3)N1)OC[C@@H](O)c1cc(Cl)sc12 [Compound 232] | 50 to 500 |  | 100.0 |  | 

Row | SMILES | IC90 [1] [nM] | Emax [2] [%] | Multi-Tox Assay Max Activity (%) [2] [%] | IC90 (Multi-Tox Assay, APOL1 variant (G0/G1/G2) not stated in Table 46) [nM] | Multi-Tox Assay Max Activity (%) (Multi-Tox Assay, APOL1 variant not stated in Table 46)
19 | C[C@H]1C[C@@]2(C[C@@H](c3ccccn3)N1)OCCc1cc(Cl)sc12 (racemic) [Compound 83] | < 50 | 99 |  |  | 
20 | C[C@H]1C[C@@]2(C[C@@H](c3cn(C)nn3)N1)OCCc1sc(C(F)(F)F)cc12 [Compound 8, (2'S,4S,6'S)-2'-methyl-6'-(1-methyltriazol-4-yl)-2-(trifluoromethyl)spiro[6,7-dihydrothieno[3,2-c]pyran-4,4'-piperidine]] | < 50 |  | 100.0 |  | 
21 | C[C@H]1C[C@@]2(C[C@@H](c3cn(Cc4ncnc5[nH]ccc45)nn3)N1)OC[C@@H](O)c1cc(Cl)sc12 [Compound 234] | 50 to 500 |  | 100.0 |  | 
22 | C[C@H]1C[C@@]2(C[C@@H](c3ccon3)N1)OCCc1cc(Cl)sc12 (racemic) [Compound 96] | < 50 | 99.8 |  |  | 
23 | C[C@H]1C[C@@]2(C[C@@H](c3cn(C)nn3)N1)OC[C@@H](O)c1cc(C(F)(F)F)sc12 [Compound 181, (2S,4S,4'S,6S)-2-methyl-6-(1-methyl-1H-1,2,3-triazol-4-yl)-2'-(trifluoromethyl)-4',5'-dihydrospiro[piperidine-4, 7'-thieno[2,3-c]pyran]-4'-ol] | < 50 | 99.8 |  |  | 
24 | Cc1cccnc1[C@@H]1C[C@]2(C[C@H](C)N1)OCCc1cc(Cl)sc12 (racemic) [Compound 167] | > 500 |  | 89.7 |  | 
25 | C[C@H]1C[C@@]2(C[C@@H](C3CC3)N1)OCC(O)c1cc(Cl)sc12 (stereo partly drawn) [Compound 220, (2'S,6'S,7S)-2-chloro-2'-cyclopropyl-6'-methyl-spiro[4,5-dihydrothieno[2,3-c]pyran-7,4'-piperidine]-4-ol] | < 50 | 99.3 |  |  | 
26 | Cc1nn(C)c2ncc(C3CC4(CC(C)N3)OCCc3cc(Cl)sc34)cc12 (stereo not shown) [Compound 42] | < 50 |  | 99.7 |  | 
27 | COc1cc(F)cc(Cn2cc([C@@H]3C[C@]4(C[C@H](C)N3)OC[C@@H](O)c3cc(Cl)sc34)nn2)c1 [Compound 293] | < 50 |  | 100.0 |  | 
28 | CC(CO)CCn1cc([C@@H]2C[C@]3(C[C@H](C)N2)OCC(F)(F)c2cc(Cl)sc23)nn1 (stereo partly shown) [Compound 306] | > 500 |  |  |  | 
29 | C[C@H]1C[C@@]2(C[C@@H](c3cn(C[C@@H](O)CO)nn3)N1)OC[C@@H](O)c1cc(Cl)sc12 [Compound 246] | 50 to 500 |  | 97.0 |  | 
30 | C[C@H]1C[C@@]2(C[C@@H](c3cn(CC(F)F)nn3)N1)OCC(F)(F)c1cc(Cl)sc12 [Compound 324] | > 500 |  | 96.0 |  | 
31 | Cc1cccc([C@@H]2C[C@]3(C[C@H](C)N2)OCCc2cc(Cl)sc23)n1 (racemic) [Compound 126] | 50 to 500 |  | 99.4 |  | 
32 | C[C@H]1C[C@@]2(C[C@@H](c3cn(Cc4ncnc5[nH]ccc45)nn3)N1)OCC(F)(F)c1cc(Cl)sc12 [Compound 350] | 50 to 500 |  |  |  | 
33 | C[C@H]1C[C@@]2(C[C@@H](c3cn(CCCO)nn3)N1)OCC(F)(F)c1cc(Cl)sc12 [Compound 359] | < 50 |  | 98.0 |  | 
34 | COc1cccc(C2CC3(CC(C)N2)OCCc2cc(Cl)sc23)n1 (mixture of isomers) [Compound 135] | 50 to 500 |  | 98.0 |  | 
35 | CC1CC2(CC(c3cn(CC4CC4)nn3)N1)OCCc1cc(Cl)sc12 (stereo not shown) [Compound 122] | 50 to 500 |  | 99.7 |  | 
